# Measurements published in patent US8907093B2, “Carboxylic acid derivatives having an oxazolo[4,5-c]pyridine ring” (Sanofi, priority 2011, dated 2014).
# Target: T1, human Edg 1 receptor (Homo sapiens, UniProt P21453)
# T1 construct: FLAG (N); expressed in transfected cells; membrane preparation
# Experiment: GTP-γ-S assay using human Edg 1 receptors (scintillation proximity assay, CHO Flp-In membrane preparation)
# Assay type: biochemical
# Settings: test compound at 10 μM; [35S]GTP-γ-S binding; membranes of CHO Flp-In cells overexpressing human Edg 1
# From the text: A) GTP-γ-S assay using human Edg 1 receptors
# In order to determine the Edg 1 receptor activation by the compounds of the invention, a GTP-γ-S ((GTP-γ-S=guanosine 5′-[thio]triphosphate) assay for G-protein coupled receptor binding based on the scintillation proximity assay principle was used, employing a cell membrane preparation from a CHO Flp-In cell line which constitutively overexpresses the human Edg 1 receptor.
# A membrane preparation was obtained by standard methods from the afore-described CHO Flp-In cell line constitutively overexpressing the human Edg 1 receptor. Briefly, the cryopreserved cells were taken in culture and grown until confluency in T175 cell culture flasks (Becton Dickinson, cat. no. 35 5001). […] Protein concentration of the membrane preparation was determined in a sample by means of a commercial protein assay (Bio-Rad, DC Protein Assay, cat. nos. 500-0113, 500-0114, 500-0115).
# The Edg 1 membrane preparation obtained in (b) was employed in a commercially available scintillation proximity assay (SPA) kit for G-protein coupled receptor binding from Amersham Biosciences/GE Healthcare (code RPNQ0210), in which ligand-induced binding of ^35S-radiolabeled GTP-γ-S to the receptor-containing membrane, which is bound to scintillation beads, stimulates the emission of light and allows to quantify the in vitro activity of the Edg 1 agonistic compound. […]
# T1 sequence (P21453 whole entry): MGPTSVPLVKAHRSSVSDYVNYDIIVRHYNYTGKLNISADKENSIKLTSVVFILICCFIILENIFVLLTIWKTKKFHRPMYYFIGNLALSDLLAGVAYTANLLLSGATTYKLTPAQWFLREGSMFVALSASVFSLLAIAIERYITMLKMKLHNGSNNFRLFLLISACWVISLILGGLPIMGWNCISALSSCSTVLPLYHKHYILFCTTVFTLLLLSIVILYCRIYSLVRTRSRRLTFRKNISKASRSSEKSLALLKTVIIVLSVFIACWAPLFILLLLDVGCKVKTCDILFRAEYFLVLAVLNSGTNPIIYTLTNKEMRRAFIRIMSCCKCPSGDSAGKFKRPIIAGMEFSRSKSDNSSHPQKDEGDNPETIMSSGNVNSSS
smiles,measurement,value
"Cc1cc(-c2nc3cnc(Oc4ccccc4F)cc3o2)cc(C)c1OCC(=O)O [Example 1, {4-[6-(2-Fluorophenoxy)oxazolo[4,5-c]pyridin-2-yl]-2,6-dimethylphenoxy}acetic acid]","receptor activation in percent of the respective high control (10 μM S1P, regarded as 100% activation)",86%
